The target of series [1] is T1, C-X-C chemokine receptor type 2 (Homo sapiens, UniProt P25025).
T1 sequence (P25025 whole entry): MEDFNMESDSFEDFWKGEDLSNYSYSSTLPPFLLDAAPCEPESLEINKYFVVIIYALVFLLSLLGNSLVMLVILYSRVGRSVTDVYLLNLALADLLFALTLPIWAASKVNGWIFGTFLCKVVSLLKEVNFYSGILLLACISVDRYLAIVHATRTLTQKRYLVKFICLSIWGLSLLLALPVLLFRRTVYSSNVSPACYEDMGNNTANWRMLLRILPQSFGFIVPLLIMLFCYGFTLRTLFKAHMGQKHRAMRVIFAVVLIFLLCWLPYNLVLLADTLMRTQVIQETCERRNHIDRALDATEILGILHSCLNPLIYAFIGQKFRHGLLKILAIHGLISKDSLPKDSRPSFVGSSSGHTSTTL
Nature of the series: Binding affinity to CXCR2.

Series [2] concerns the target T2, Interleukin-8 receptors, CXCR1/CXCR2 (Homo sapiens, UniProt P25025+P25024).
T2 sequence (P25025 whole entry): T1 sequence (P25025 whole entry)
T2 sequence (P25024 whole entry): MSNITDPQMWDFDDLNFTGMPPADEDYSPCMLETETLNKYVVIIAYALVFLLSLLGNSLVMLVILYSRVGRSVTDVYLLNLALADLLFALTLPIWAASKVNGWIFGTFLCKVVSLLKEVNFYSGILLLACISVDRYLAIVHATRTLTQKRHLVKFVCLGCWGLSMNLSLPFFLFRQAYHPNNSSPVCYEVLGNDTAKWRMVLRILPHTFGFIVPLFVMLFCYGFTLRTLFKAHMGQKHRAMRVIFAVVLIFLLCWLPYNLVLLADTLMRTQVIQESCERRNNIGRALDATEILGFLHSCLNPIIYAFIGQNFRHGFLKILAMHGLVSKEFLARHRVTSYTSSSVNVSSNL
The experiment in a line: Antagonist activity at CXCR1/CXCR2 in human PMN cells assessed as inhibition of IL8-mediated myeloperoxidase release. Format: functional, cell-based.

Series [3] addresses T2, Interleukin-8 receptors, CXCR1/CXCR2. The experiment in a line: Antagonist activity at CXCR1/CXCR2 in human PMN cells assessed as inhibition of GROalpha-mediated myeloperoxidase release. In kind it is functional, cell-based.
Series [4] deals with T3, C-X-C chemokine receptor type 1 (Homo sapiens, UniProt P25024).
T3 sequence (P25024 whole entry): T2 sequence (P25024 whole entry)
The experiment in a line: Binding affinity to CXCR1.

Series [5] concerns the target Interleukin-8 receptors, CXCR1/CXCR2 (Homo sapiens) (UniProt P25025+P25024). Nature of the series: Antagonist activity at CXCR1/CXCR2 in human PMN cells assessed as inhibition of GROalpha-mediated myeloperoxidase release at 1 uM. Format: functional, cell-based. Set-up: scale not given: the % may be the effect or the level left.
A short description of series [6]: Drug level in po dosed rat blood. In kind it is ADME, organism-based. The conditions noted are these: read-out: Activity.

These results are taken from ChEMBL document CHEMBL1140777, “3,4-Diamino-2,5-thiadiazole-1-oxides as potent CXCR2/CXCR1 antagonists” (Bioorg Med Chem Lett, 2008).

Each structure is given as a SMILES string.

Take `CN(C)C(=O)c1cccc(Nc2n[s+]([O-])nc2N[C@@H](c2ccco2)C(C)(C)C)c1O` (stereo not given in full): the results for the Ki in series [1] and in series [4] were 2.3 nM and 21 nM, respectively. Further, the concentration for half-maximal inhibition (IC50) (as a rule, the midpoint of a concentration-inhibition curve) was determined as 20 nM in series [2] and 8 nM in series [3].
Taken in the same sequence, the figures for `CN(C)C(=O)c1cccc(Nc2n[s+]([O-])nc2N[C@@H](c2ccco2)C2(C)CC2)c1O` (stereo not given in full) were 12 nM, 375 nM, 400 nM and 132 nM.
On to `CN(C)C(=O)c1cccc(NC2=NS(=O)(=O)N=C2N[C@@H](c2ccc3c(c2)OCO3)C(C)(C)C)c1O`, for which the inhibitory constant (Ki) (commonly a dissociation constant, usually derived from enzyme kinetics or from competition with a known ligand) in series [1] amounted to 4.7 nM; in series [4] it was 46 nM.
Regarding `Cc1ccc([C@H](NC2=NS(=O)(=O)N=C2Nc2cccc(C(=O)N(C)C)c2O)C2(C)CC2)o1`, in series [5], the Activity is -11%. Besides, the Ki came out at 184 nM in series [1] and 1100 nM in series [4].
For the compound `CC[C@@H](NC1=NS(=O)(=O)N=C1Nc1cccc(C(=O)N(C)C)c1O)c1ccc(C)o1`, the Ki in series [4] is 5950 nM.
In the case of `Cc1cc([C@H](Nc2n[s+]([O-])nc2Nc2cccc(C(=O)N(C)C)c2O)C(C)C)oc1C` (stereo not given in full), the IC50 in series [2] came to 54 nM; in series [3] it was 13 nM. Besides, the AUC in series [6] turned out to be 119 µM·h.
On to `CC[C@@H](Nc1n[s+]([O-])nc1Nc1cccc(C(=O)N(C)C)c1O)c1cc(C(C)C)co1` (stereo not given in full), for which the values for the inhibition constant (Ki) in series [1] and in series [4] were 9 nM and 61 nM, respectively. Also, the results for the IC50 in series [2] and in series [3] were 15 nM and 8 nM, respectively.
`CC[C@@H](Nc1n[s+]([O-])nc1Nc1cccc(C(=O)N(C)C)c1O)c1ccc(C)o1` (stereo not given in full): the Ki in series [1] was 3 nM; in series [4], 234 nM. Also, the IC50 in series [2] turned out to be 539 nM; in series [3] it was 133 nM.
On to `CC[C@@H](NC1=NS(=O)(=O)NC1=Nc1cccc(C(=O)N(C)C)c1O)c1ccc2c(c1)OCCN2C`, for which the inhibition constant Ki in series [1] was 9 nM; in series [4], 2800 nM.
For `CN(C)C(=O)c1cccc(NC2=NS(=O)(=O)N=C2N[C@@H](c2ccco2)C(C)(C)C)c1O`, the Activity in series [5] came out at 3%. Moreover, the inhibitory constant (Ki) in series [1] worked out at 11 nM; in series [4] it was 61 nM.
Take `C[C@H](Nc1n[s+]([O-])nc1Nc1cccc(C(=O)N(C)C)c1O)C(C)(C)C` (stereo not given in full): the inhibition constant Ki in series [1] was determined as 58 nM; in series [4], 484 nM. Besides, the IC50 in series [2] was 684 nM; in series [3], 38 nM. For the same compound, the AUC in series [6] came to 5.28 µM·h.
Consider `CC(C)[C@@H](NC1=NS(=O)(=O)N=C1Nc1cccc(C(=O)N(C)C)c1O)c1cccc(F)c1`, for which the values for the inhibition constant Ki in series [1] and in series [4] were 11 nM and 652 nM, respectively.
As to `Cc1ccc([C@H](Nc2n[s+]([O-])nc2Nc2cccc(C(=O)N(C)C)c2O)C(C)(C)C)o1` (stereo not given in full), the Ki in series [1] was found to be 5 nM; in series [4], 38 nM. In addition, the IC50 in series [2] was determined as 80 nM; in series [3], 27 nM.
As to `CN(C)C(=O)c1cccc(NC2=NS(=O)(=O)N=C2N[C@@H](c2ccc3c(c2)OCCO3)C(C)(C)C)c1O`, in series [5], the Activity was -12%.
For `CC[C@@H](Nc1n[s+]([O-])nc1Nc1cccc(C(=O)N(C)C)c1O)c1ccccc1` (stereo not given in full), the inhibitory constant (Ki) in series [1] amounted to 5 nM; in series [4], 1220 nM. Also, the IC50 in series [3] was determined as 331 nM.
As for `CC[C@@H](NC1=NS(=O)(=O)N=C1Nc1cccc(C(=O)N(C)C)c1O)c1ccccc1`, in series [5], the Activity is -39%. Besides, in series [2], the 50% inhibitory concentration (IC50) was 8990 nM. Further, the AUC in series [6] was 2.3 µM·h. In series [4], this compound showed a Ki of 8990 nM.
As to `CN(C)C(=O)c1cccc(Nc2n[s+]([O-])nc2N[C@@H](c2ccccc2)C(C)(C)C)c1O` (stereo not given in full), the Ki in series [1] was determined as 4 nM; in series [4] it was 130 nM. The half-maximal inhibitory concentration (IC50) stood at 142 nM in series [2] and 28 nM in series [3].
As to `CC(C)[C@@H](Nc1n[s+]([O-])nc1Nc1cccc(C(=O)N(C)C)c1O)c1cccc(F)c1` (stereo not given in full), the results for the inhibitory constant (Ki) in series [1] and in series [4] were 8 nM and 4010 nM, respectively.
Taken in the same sequence, the figures for `CN(C)C(=O)c1cccc(Nc2n[s+]([O-])nc2NCc2ccc3c(c2)OCO3)c1O` (stereo not given) were 15 nM and 10000 nM.
Regarding `CN(C)C(=O)c1cccc(N=C2NS(=O)(=O)N=C2N[C@@H](c2ccc3c(c2)OCCO3)C(C)(C)C)c1O`, the inhibition constant Ki in series [1] amounted to 24 nM; in series [4], 2000 nM. Moreover, the AUC in series [6] worked out at 1.87 µM·h.
For the compound `CN(C)C(=O)c1cccc(NC2=NS(=O)(=O)N=C2N[C@@H](c2ccc(Cl)o2)C(C)(C)C)c1O`, the Ki was 9 nM in series [1] and 129 nM in series [4].
As to `CCC(C)(C)[C@@H](NC1=NS(=O)(=O)N=C1Nc1cccc(C(=O)N(C)C)c1O)c1ccco1`, the Activity in series [5] was -19%. For the same compound, the Ki in series [1] was determined as 16 nM; in series [4] it was 188 nM.
